# Test results from PubChem BioAssay (NCI).
# Several values for one entry are separate records, joined by “and”; a condition that tells them apart may be missing. Equal values may be shown once.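 96-well plates; 48 h exposure; 5 concentrations. Endpoints by linear interpolation between flanking doses. Not reached: highest tested concentration assigned. GI50 marks 50% less growth. The concentration for full growth arrest is given as TGI.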
# Key:
# Experiment in all cases: NCI-60 cell line screen, 48 h
# COLO 205 colon = system: COLO 205 colon
# EKVX NSCLC = system: EKVX NSCLC
# NCI-H522 lung = system: NCI-H522 lung
# RPMI-8226 leukemia = system: RPMI-8226 leukemia
# SK-MEL-28 melanoma = system: SK-MEL-28 melanoma
# U251 CNS = system: U251 CNS
# UACC-257 melanoma = system: UACC-257 melanoma
# UO-31 renal = system: UO-31 renal
# HCC-2998 colon = system: HCC-2998 colon
# MDA-MB-231 breast = system: MDA-MB-231 breast
Structure (SMILES),TGI (COLO 205 colon),TGI (EKVX NSCLC),TGI (NCI-H522 lung),TGI (RPMI-8226 leukemia),TGI (SK-MEL-28 melanoma),TGI (U251 CNS),TGI (UACC-257 melanoma),TGI (UO-31 renal),TGI (HCC-2998 colon),GI50 (COLO 205 colon),GI50 (EKVX NSCLC),GI50 (MDA-MB-231 breast),TGI (MDA-MB-231 breast),GI50 (NCI-H522 lung),GI50 (RPMI-8226 leukemia),GI50 (U251 CNS),GI50 (UACC-257 melanoma),GI50 (UO-31 renal),GI50 (HCC-2998 colon),GI50 (SK-MEL-28 melanoma)
CC(=O)n1nnc2ccc([N+](=O)[O-])cc21,> 100 µM,> 100 µM,> 100 µM,> 100 µM,> 100 µM,> 100 µM,> 100 µM,> 100 µM,–,–,–,–,–,–,–,–,–,–,–,–
O=C1c2cccc([N+](=O)[O-])c2C(=O)c2nccnc21,–,3.92 µM,2.75 µM,7.92 µM,3.01 µM,4.34 µM,1.66 µM,2.6 µM,6.17 µM,–,–,–,–,–,–,–,–,–,–,–
CN(C)CCCOc1ccc(/C=C2/CCC/C(=C/c3ccc(OCCCN(C)C)cc3)C2=O)cc1,3.2 µM,6.84 µM,3.75 µM,3.43 µM,4 µM,2.13 µM,3.93 µM,3.34 µM,3.12 µM,–,–,–,–,–,–,–,–,–,–,–
Cc1cc(Cl)ccc1NC(=O)CC1SC(=NC(=O)c2ccccc2Cl)NC1=O (stereo unspecified),–,> 100 µM,29 µM,38.4 µM,44.8 µM,30.1 µM,38.6 µM,44.6 µM,> 100 µM,–,–,–,–,–,–,–,–,–,–,–
O=C1Nc2ccc(O)cc2/C1=C\c1ccncc1,64.8 µM,56 µM,38.2 µM,> 100 µM,–,23.1 µM,33.3 µM,31.8 µM,–,26.3 µM,10.6 µM,14.6 µM,39.4 µM,11.5 µM,34.1 µM,10.3 µM,13.2 µM,14.1 µM,–,–
CC(C)COC(=O)c1ccc(N=Cc2ccc(C=Nc3ccc(C(=O)OCC(C)C)cc3)cc2)cc1,> 100 µM,–,> 100 µM,> 100 µM,> 100 µM,> 100 µM,> 100 µM,> 100 µM,> 100 µM,–,–,–,–,–,–,–,–,–,–,–
N#CC(C#N)=Cc1ccc(C(O)P(=O)(O)O)cc1 (stereo unspecified),> 100 µM,> 100 µM,> 100 µM,> 100 µM,> 100 µM,> 100 µM,> 100 µM,> 100 µM,> 100 µM,–,–,–,–,–,–,–,–,–,–,–
Cc1ccc(NC(=O)CCc2nnc3s/c(=C\c4cccc([N+](=O)[O-])c4)c(=O)n23)cc1,> 100 µM,> 100 µM,> 100 µM,> 100 µM,> 100 µM,> 100 µM,> 100 µM,> 100 µM,> 100 µM,–,–,–,–,–,–,–,–,–,–,–
O=C(Nc1ccccc1)n1cc(-c2ccccn2)c(N2CCOCC2)n1,> 100 µM,> 100 µM,6.58 µM,> 100 µM,–,> 100 µM,> 100 µM,92.8 µM,> 100 µM,–,–,–,–,–,–,–,–,–,–,–
Cc1ccc(C(=O)C(c2nc3n(c2O)C(=N)N=N3)c2nc3n(c2O)C(=N)N=N3)cc1 (stereo unspecified),> 100 µM,> 100 µM,> 100 µM,> 100 µM,> 100 µM,–,> 100 µM,> 100 µM,> 100 µM,–,–,–,–,–,–,–,–,–,–,–
COC(=O)C(=O)C(C#N)c1cccc(Cl)c1 (stereo unspecified),> 100 µM,> 100 µM,> 100 µM,> 100 µM,> 100 µM,> 100 µM,> 100 µM,> 100 µM,> 100 µM,–,–,–,–,–,–,–,–,–,–,–
COc1cccc(N2C(=O)/C(=C/c3ccc(N(CCC#N)CCC#N)cc3)N=C2c2cc([N+](=O)[O-])ccc2Cl)c1,62.4 µM,–,> 100 µM,> 100 µM,> 100 µM,> 100 µM,> 100 µM,> 100 µM,> 100 µM,–,–,–,–,–,–,–,–,–,–,–
O=CC1CCC=CC1NC(=O)OCc1ccccc1 (stereo unspecified),> 100 µM,> 100 µM,> 100 µM,> 100 µM,> 100 µM,> 100 µM,> 100 µM,> 100 µM,–,–,–,–,–,–,–,–,–,–,–,–
O=C(CCC(=O)Nc1ccc(Cl)cc1)CC(=O)c1ccc2ccccc2c1,> 100 µM,> 100 µM,> 100 µM,> 100 µM,> 100 µM,> 100 µM,> 100 µM,> 100 µM,> 100 µM,–,–,–,–,–,–,–,–,–,–,–
CCOC(=O)NC(=O)c1cn(CCCCCCCCCCC(=O)NCCCN2CCN(CCCNC(=O)CCCCCCCCCCn3cc(C(=O)NC(=O)OCC)c(=O)[nH]c3=O)CC2)c(=O)[nH]c1=O,> 100 µM,–,> 10 µM,–,> 100 µM,> 100 µM,> 100 µM,> 100 µM,> 100 µM,–,–,–,–,–,–,–,–,–,–,–
Cc1cc2c(C(=O)NCC#N)cccc2n1-c1nc2c(c(NCc3ccccc3)n1)CCCC2,0.404 µM,2.4 µM,0.842 µM,–,1.86 µM,0.521 µM,–,1.11 µM,0.357 µM,0.201 µM,0.329 µM,0.273 µM,0.59 µM,0.242 µM,–,0.227 µM,–,0.305 µM,0.178 µM,0.406 µM
CC(=O)NC(CS)C(=O)O (stereo unspecified),> 100 µM,> 100 µM and 87600 µM,> 100 µM and 46300 µM,> 100 µM and 3720 µM,> 100 µM,> 100 µM,> 100 µM,> 100 µM and 45400 µM,> 100 µM and 50800 µM,> 100 µM,> 100 µM,–,–,> 100 µM,> 100 µM,> 100 µM,> 100 µM,> 100 µM,> 100 µM,> 100 µM
Cc1cc2nc3c(=O)[nH]c(=O)nc-3n(CC(O)C(O)C(O)CO)c2cc1N (stereo unspecified),> 100 µM,> 100 µM,–,> 100 µM,> 100 µM,–,–,> 100 µM,> 100 µM,–,–,–,–,–,–,–,–,–,–,–
Cc1cc(O[C@@H]2O[C@@H](C)[C@H](O)[C@@H](O)[C@H]2O)c2c3c(c(O[C@@H]4O[C@@H](C)[C@H](O)[C@@H](O)[C@H]4O)cc2c1)C(=O)c1c(O)cccc1C3=O,> 30 µM,> 30 µM,–,> 30 µM,> 30 µM,> 30 µM,> 30 µM,> 30 µM,> 30 µM,> 30 µM,> 30 µM,> 30 µM,> 30 µM,–,> 30 µM,> 30 µM,> 30 µM,> 30 µM,> 30 µM,> 30 µM
Cc1ccc2nc(Sc3c([N+](=O)[O-])ncn3C)[nH]c2c1,27.8 µM,63.9 µM,–,78.7 µM,> 100 µM,> 100 µM,38.5 µM,88.4 µM,30.6 µM,–,–,–,–,–,–,–,–,–,–,–
CC12CC/C(=N/NC(N)=O)C3C1CCCC32,> 100 µM,–,> 100 µM,> 100 µM,> 100 µM,> 100 µM,> 100 µM,> 100 µM,> 100 µM,–,–,–,–,–,–,–,–,–,–,–
